Earlier results in patent publication US20140342022A1, “Natural Product Against Fatigue” (priority 2013, published 2014).

System: EBV-EA activation
Conditions: latently infected cells

Compound: O=c1c(O)c(-c2ccc(O)c(O)c2)oc2cc(O)cc(O)c12 [quercetin]
- EBV-EA activation: inhibits
